Reference: US20040171598A1, “Use of steroids to treat persons suffering from ocular disorders” (priority 2003, published 2004)

Legend:
[1] = system: IOP; test: Dexamethasone acetate induced IOP elevation in rabbits; assay type: in vivo, rabbit; conditions: for IOP: rabbits with weekly subTenon's dexamethasone acetate 1 mg/kg, versus vehicle
Experimental: Three groups of rabbits received weekly subTenon's injections of dexamethasone acetate (1 mg/kg) for 4 weeks. After two weeks, the IOPs of all three groups measured approximately 5 mm Hg. The rabbits were then treated with vehicle, 0.1% anecortave acetate, a 1% anecortave acetate by topical ocular dosing three times a day for the remaining 2 weeks. The IOP continued to increase in the vehicle treated group.

[2] = system: retinal neovascularization; test: Rat pup model of retinopathy of prematurity; assay type: in vivo
Experimental: Anecortave acetate was tested for its angiostatic efficacy in a rat pup model of retinopathy of prematurity (Penn, at al., Investigative Ophthalmology & Visual Science, “The Effect of an Angiostatic Steroid on Neovascularization in a Rat Model of Retinopathy of Prematurity,” Vol. 42(1):283-290, January 2001). Newborn rat pups were placed in an atmosphere of varying oxygen content. The rats received a single intravitreal injection of vehicle or anecortave acetate (500 μg) upon return to room air (day 14) or 2 days later (day 16). There was significant retinal neovascularization in the rats that receive vehicle injections.

SMILES | IOP after two weeks of dexamethasone acetate ([1]; rabbits, weekly subTenon's injections 1 mg/kg, all three groups, before anecortave acetate or vehicle dosing) | IOP ([1]; 0.1% anecortave acetate topical ocular three times a day for 2 weeks) | IOP ([1]; 1% anecortave acetate topical ocular three times a day for 2 weeks) | inhibition of retinal neovascularization ([2]; single intravitreal injection 500 μg 2 days after return to room air (day 16)) [%] | inhibition of retinal neovascularization ([2]; single intravitreal injection 500 μg upon return to room air (day 14)) [%]
CC(=O)OCC(=O)[C@@]1(O)[C@H](C)C[C@H]2[C@@H]3CCC4=CC(=O)C=C[C@]4(C)[C@@]3(F)[C@@H](O)C[C@@]21C [dexamethasone acetate] | approximately 5 mm Hg |  |  |  | 
CC(=O)OCC(=O)[C@@]1(O)CC[C@H]2[C@@H]3CCC4=CC(=O)CC[C@]4(C)C3=CC[C@@]21C [anecortave acetate, 4,9(11)-pregnadien-17α,21-diol-3,20dione-21-acetate] |  | significantly lowered | significantly lowered | 50 | 66
